Reference: US20210059955A1, “SYSTEMS AND METHODS FOR DECRYSTALLIZATION OF URIC ACID” (RL Patents, LLC, priority 2019, published 2021)
Where two headings read alike, the source gives them in different places.

Tests used:
[1] = test subject A, over the six-month experiment
Method: (§1) The method of the experiment includes test subject A submerging an affected joint into a warm bath containing water and sodium bicarbonate. The heat was used to facilitate opening of skin pores to facilitate absorption of the active ingredient or agent. […] Control subject B submerged their affected foot into a pure water bath without any other substance or compound at 38° C. for twice a day for durations of 60 minutes, and for a total of six months. […] A phlebotomist drew a vial of blood from each subject's arm, and the samples were processed by an analyzer, model AU480, by Beckman Coulter.
(§2) Both test subject A and control subject B were diagnosed of hyperuricemia based on personal and clinical assessments, such as, e.g., multiple previous acute gout attacks, presence of swelling and tophi at the affected joint, and measured uric acid serum levels above […]. Both test subject A and control subject B were not on any medication at the time of the experiment, and maintained a low-purine diet, such as, e.g., primarily fruits, vegetables, and bread.

uric acid serum levels = settings: test subject A; for Uric acid serum level: saturated sodium bicarbonate water bath 38° C., twice a day 60 minutes
Method: as §1, §2

SMILES: O=C([O-])O.[Na+] [sodium bicarbonate]
- Tophi by visual inspection [1]: no longer visible
- Overall course of uric acid content (uric acid serum levels; over the six-month experiment): general decline
- Uric acid serum level (uric acid serum levels; August 1 2018): 6.79 mg/dL
- Uric acid serum level (uric acid serum levels; August 15 2018): 6.47 mg/dL
- Uric acid serum level (uric acid serum levels; December 1 2018): 5.41 mg/dL
- Uric acid serum level (uric acid serum levels; December 15 2018): 5.20 mg/dL
- Uric acid serum level (uric acid serum levels; July 1 2018): 6.62 mg/dL
- Uric acid serum level (uric acid serum levels; July 15 2018): 6.58 mg/dL
- Uric acid serum level (uric acid serum levels; June 1 2018): 6.99 mg/dL
- Uric acid serum level (uric acid serum levels; June 15 2018): 7.15 mg/dL
- Uric acid serum level (uric acid serum levels; November 1 2018): 5.37 mg/dL
- Uric acid serum level (uric acid serum levels; November 15 2018): 5.34 mg/dL
- Uric acid serum level (uric acid serum levels; October 1 2018): 5.47 mg/dL
- Uric acid serum level (uric acid serum levels; October 15 2018): 5.40 mg/dL
- Uric acid serum level (uric acid serum levels; September 1 2018): 5.98 mg/dL
- Uric acid serum level (uric acid serum levels; September 15 2018): 5.59 mg/dL
